Active and inactive are the calls of the source. The calls are words filed in the database; no cut-off is given here.
Experiments:
[1] = Selectivity index, ratio of IC50 for human COX2 to IC50 for ovine COX1
[2] = target: T1, Prostaglandin G/H synthase 2 (Homo sapiens, UniProt P35354); experiment: Inhibition of human COX2 using arachidonic acid as substrate by colorimetric assay
T1 sequence (P35354 whole entry): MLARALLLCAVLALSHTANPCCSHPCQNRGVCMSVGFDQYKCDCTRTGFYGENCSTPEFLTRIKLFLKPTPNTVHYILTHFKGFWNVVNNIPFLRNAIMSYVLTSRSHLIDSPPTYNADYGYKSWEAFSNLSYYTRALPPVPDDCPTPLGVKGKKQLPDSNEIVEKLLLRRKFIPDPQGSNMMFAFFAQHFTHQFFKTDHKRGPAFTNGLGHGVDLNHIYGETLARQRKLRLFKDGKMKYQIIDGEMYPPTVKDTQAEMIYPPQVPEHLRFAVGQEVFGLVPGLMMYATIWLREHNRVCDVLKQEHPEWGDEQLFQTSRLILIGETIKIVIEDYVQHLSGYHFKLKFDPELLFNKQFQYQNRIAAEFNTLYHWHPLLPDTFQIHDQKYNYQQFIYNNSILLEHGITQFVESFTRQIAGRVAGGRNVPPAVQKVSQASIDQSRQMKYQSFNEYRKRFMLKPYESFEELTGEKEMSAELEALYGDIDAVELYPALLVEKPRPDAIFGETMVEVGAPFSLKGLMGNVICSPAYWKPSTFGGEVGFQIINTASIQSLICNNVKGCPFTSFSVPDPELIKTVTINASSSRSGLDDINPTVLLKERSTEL

[3] = target: T2, Prostaglandin G/H synthase 1 (Ovis aries) (UniProt P05979); experiment: Inhibition of ovine COX1 at 50 uM using arachidonic acid as substrate by colorimetric assay relative to control
T2 sequence (whole entry): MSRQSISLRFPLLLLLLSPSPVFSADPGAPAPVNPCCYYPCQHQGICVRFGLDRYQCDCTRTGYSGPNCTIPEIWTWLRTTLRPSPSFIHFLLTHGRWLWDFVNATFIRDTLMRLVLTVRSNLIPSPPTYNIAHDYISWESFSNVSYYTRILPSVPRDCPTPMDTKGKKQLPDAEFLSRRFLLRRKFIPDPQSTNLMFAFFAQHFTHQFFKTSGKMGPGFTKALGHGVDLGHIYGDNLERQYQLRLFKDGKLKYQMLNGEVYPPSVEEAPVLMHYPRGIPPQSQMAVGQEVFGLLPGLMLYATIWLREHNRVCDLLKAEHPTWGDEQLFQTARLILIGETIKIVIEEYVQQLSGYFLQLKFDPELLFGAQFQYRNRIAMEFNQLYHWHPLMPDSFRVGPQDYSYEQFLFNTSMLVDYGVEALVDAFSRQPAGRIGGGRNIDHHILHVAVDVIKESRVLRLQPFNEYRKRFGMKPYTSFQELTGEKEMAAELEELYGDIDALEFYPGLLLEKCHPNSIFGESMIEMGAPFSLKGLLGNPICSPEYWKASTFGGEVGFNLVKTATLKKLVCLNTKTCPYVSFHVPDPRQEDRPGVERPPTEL

[4] = target: T3, Prostaglandin G/H synthase 2 (Homo sapiens) (UniProt P35354); experiment: Inhibition of human COX2 at 50 uM using arachidonic acid as substrate by colorimetric assay relative to control
T3 sequence (whole entry): T1 sequence (P35354 whole entry)

[5] = target: T4, Prostaglandin G/H synthase 1 (Ovis aries, UniProt P05979); experiment: Inhibition of ovine COX1 using arachidonic acid as substrate by colorimetric assay
T4 sequence (P05979 whole entry): T2 sequence (whole entry)

[6] = target: T2, Prostaglandin G/H synthase 1 (Ovis aries); experiment: Inhibition of ovine COX1 at 10 uM using arachidonic acid as substrate by colorimetric assay relative to control
[7] = system: Plasma; experiment: Anticoagulant activity in human platelet poor plasma assessed as prothrombin time at 100 uM incubated for 15 mins at room temperature and subsequent incubation for 2 mins at 37 degreeC followed by PBS addition and measured after 3 mins for every secs in presence of calcium thromboplastin; type: functional
[8] = system: Plasma; experiment: Anticoagulant activity in human platelet poor plasma assessed as activated partial thromboplastin time at 100 uM incubated for 15 mins at room temperature and subsequent incubation for 2 mins at 37 degreeC followed by cephalin addition and measured after 2 mins for every secs in presence of CaCl2; type: functional
[9] = system: NCI-H929; experiment: Induction of apoptosis in human NCI-H929 cells assessed as viable cells at 2 nM after 48 hrs by Annexin-V/propidium iodide staining based flow cytometric method (reference value: 82.6%); type: functional; conditions: NCI-H929, 48 h, read-out: Activity
[10] = system: RPMI-8226; experiment: Cytotoxicity against human RPMI8226 cells assessed as reduction in cell viability at 2 nM after 48 hrs by CCK8 assay relative to control; type: functional, cell-based
[11] = system: RPMI-8226; experiment: Cytotoxicity against human RPMI8226 cells assessed as reduction in cell viability at 2 nM after 48 hrs by CCK8 assay; type: functional, cell-based
[12] = system: RPMI-8226; experiment: Induction of apoptosis in human RPMI8226 cells assessed as late apoptotic cells at 3 nM after 48 hrs by Annexin-V/propidium iodide staining based flow cytometric method (reference value: 0.21%); type: functional
[13] = system: NCI-H929; experiment: Induction of apoptosis in human NCI-H929 cells assessed as necrotic cells at 2 nM after 48 hrs by Annexin-V/propidium iodide staining based flow cytometric method (reference value: 0.0034%); type: functional
[14] = system: NCI-H929; experiment: Induction of apoptosis in human NCI-H929 cells assessed as early apoptotic cells at 2 nM after 48 hrs by Annexin-V/propidium iodide staining based flow cytometric method (reference value: 17.1%); type: functional
[15] = system: NCI-H929; experiment: Cell cycle arrest in human NCI-H929 cells assessed as accumulation at G0/G1 phase at 2 nM after 48 hrs by propidium iodide/RNase staining based flow cytometric method relative to control; type: functional
[16] = system: RPMI-8226; experiment: Induction of apoptosis in human RPMI8226 cells assessed as viable cells at 3 nM after 48 hrs by Annexin-V/propidium iodide staining based flow cytometric method (reference value: 98.7%); type: functional; conditions: RPMI-8226, 48 h, read-out: Activity
[17] = system: RPMI-8226; experiment: Cytotoxicity against human RPMI8226 cells assessed as reduction in cell viability at 3 nM after 48 hrs by CCK8 assay relative to control; type: functional
[18] = system: RPMI-8226; experiment: Cell cycle arrest in human RPMI8226 cells assessed as accumulation at S phase at 3 nM after 48 hrs by propidium iodide/RNase staining based flow cytometric method; type: functional
[19] = system: RPMI-8226; experiment: Induction of apoptosis in human RPMI8226 cells assessed as necrotic cells at 3 nM after 48 hrs by Annexin-V/propidium iodide staining based flow cytometric method (reference value: 0.090%); type: functional
[20] = system: RPMI-8226; experiment: Cell cycle arrest in human RPMI8226 cells assessed as accumulation at G0/G1 phase at 3 nM after 48 hrs by propidium iodide/RNase staining based flow cytometric method; type: functional
[21] = system: RPMI-8226; experiment: Induction of apoptosis in human RPMI8226 cells assessed as early apoptotic cells at 3 nM after 48 hrs by Annexin-V/propidium iodide staining based flow cytometric method (reference value: 1.05%); type: functional
[22] = system: NCI-H929; experiment: Induction of apoptosis in human NCI-H929 cells assessed as late apoptotic cells at 2 nM after 48 hrs by Annexin-V/propidium iodide staining based flow cytometric method (reference value: 0.23%); type: functional
[23] = system: NCI-H929; experiment: Cell cycle arrest in human NCI-H929 cells assessed as accumulation at S phase at 2 nM after 48 hrs by propidium iodide/RNase staining based flow cytometric method relative to control; type: functional
[24] = Genotoxicity in Escherichia coli PQ37 at 500 uM after overnight incubation by SOS chromotest; type: toxicity
[25] = Genotoxicity in Escherichia coli PQ35 at 500 uM after overnight incubation by SOS chromotest; type: toxicity

IC50 [2]	inhibition [3]	IC50 [5]	Structure (SMILES)	further results
0.35 µM			COc1ccc(-c2noc(C)c2-c2ccc(OC)cc2)cc1	Ratio IC50 [1]: 4.6
> 50 µM	33%	> 50 µM	COc1ccc(-c2c(-c3ccc(N)cc3)noc2CC(=O)O)cc1	inhibition [4]: 42%
> 50 µM			COc1ccc(-c2c(-c3ccc([N+](=O)[O-])cc3)noc2C)cc1	inhibition [6]: 36%
> 50 µM	94%	3 µM	COc1ccc(-c2c(-c3ccc(F)cc3)noc2C)cc1	
0.07 µM	24%	> 50 µM	Cc1onc(-c2ccc(S(C)(=O)=O)cc2)c1-c1ccc(F)cc1	inhibition [4]: 52%
			O=C(NC[C@H]1CN(c2ccc(N3CCOCC3=O)cc2)C(=O)O1)c1ccc(Cl)s1 [RIVAROXABAN]	PT [7]: 300 s; APTT [8]: 300 s
> 50 µM	53%	23 µM	COc1ccc(-c2c(-c3ccc(N)cc3)noc2C)cc1	
> 50 µM		> 50 µM	CS(=O)(=O)c1ccc(-c2noc(N)c2-c2ccc(F)cc2)cc1	
> 50 µM	79%	12 µM	COc1ccc(-c2c(-c3ccc(NC(C)=O)cc3)noc2CC(=O)O)cc1	
			CC(C)C[C@H](NC(=O)[C@H](Cc1ccccc1)NC(=O)c1cnccn1)B(O)O [BORTEZOMIB]	viability at 0.002 µM [9]: 51.1%; Activity [10]: Active; Activity [11]: Active; Activity [12]: 0.11%; Activity [13]: 0.033%; Activity [14]: 48.7%; Activity [15]: 10%; viability at 0.003 µM [16]: 91.1%; Activity [17]: 53%; Activity [18]: inactive; Activity [19]: 0.0918%; Activity [20]: inactive; Activity [21]: 8.81%; Activity [22]: 0.14%; Activity [23]: 10%
> 50 µM	89%	8.3 µM	COc1ccc(-c2noc(N)c2-c2ccc(OC)cc2)cc1	
> 50 µM	71%	12 µM	Nc1onc(-c2ccc([N+](=O)[O-])cc2)c1-c1ccc(F)cc1	
0.3 µM	100%	0.35 µM	COc1ccc(-c2noc(CF)c2-c2ccc(OC)cc2)cc1	inhibition [4]: 85%
			O=[N+]([O-])c1cc[n+]([O-])c2ccccc12 [4-NITROQUINOLINE-1-OXIDE]	Activity [24]: Toxic; Activity [25]: Toxic
0.19 µM	100%	0.12 µM	COc1ccc(-c2noc(CCO)c2-c2ccc(OC)cc2)cc1	Ratio IC50 [1]: 1.6; inhibition [4]: 82%
0.18 µM	93%	0.1 µM	COc1ccc(-c2noc(CBr)c2-c2ccc(OC)cc2)cc1	inhibition [4]: 63%
> 50 µM	92%	7.5 µM	COc1ccc(-c2c(-c3ccc(F)cc3)noc2CC(=O)O)cc1	
> 50 µM	83%	13 µM	COc1ccc(-c2c(-c3ccc(F)cc3)noc2N)cc1	
> 50 µM		> 50 µM	Cc1onc(-c2ccc([N+](=O)[O-])cc2)c1-c1ccc(F)cc1	
